Test results: patent publication US5077301A, “4-(hydroxydiphenylmethyl)-1-piperidylphenylalkane derivatives as antihistamines and methods of treatment of an allergic response” (Schaper & Bruemmer GmbH & Co. KG, priority 1989, dated 1991)
In brackets after ≈: the same amount, converted by molar mass.

Tests used:
[1] = test system: isolated trachea of guinea pigs; experiment: Spasmolysis of histamine-induced contraction on isolated guinea pig trachea, organ bath; assay type: cell-based; details: Cavia porcellus; histamine dihydrochloride as spasmogen, 0.2-2 μg/ml; at least six individual tests; read-out: ED50 on the isolated tracheal preparation
Description: (§1) Experiments were carried out on the isolated ileum and on the isolated trachea of guinea pigs in a typical manner in vitro in a suitable organ bath. Histamine dihydrochloride was used as a spasmogen in a final concentration of 0.2-2 μg/ml, depending on the organ preparation. The activity of the compounds was determined from the reactive spasmolysis, i.e., the relative decrease in the force of contractions compared with zero dose. The concentration-action relation was calculated from the non-linear regression between dose and action from at least six individual tests.

[2] = test system: isolated ileum of guinea pigs; experiment: Spasmolysis of histamine-induced contraction on isolated guinea pig ileum, organ bath; assay type: cell-based; details: Cavia porcellus; histamine dihydrochloride as spasmogen, 0.2-2 μg/ml; at least six individual tests; read-out: ED50 on guinea pig ileum
Description: as §1

[3] = test system: histamine-induced skin weal in the mouse; experiment: Duration of inhibition of histamine-induced skin weal in the mouse after a single oral dose; assay type: in vivo; details: oral administration of a comparable dose (to 6 mg/kg)
Description: The experiments were carried out on male NMRI mice with a body weight of 25-30 g. […] The dyestuff concentration determined by photometry in a defined area of skin can be designated a measure of the antihistamine activity.

Row | Compound | IC50 [1] | IC50 [2] | antihistamine action after 4 hours [3]
1 | COc1cccc(CN2CCC(C(O)(c3ccccc3)c3ccccc3)CC2)c1 [[4-(Hydroxydiphenylmethyl)-1-piperidyl]-(3-methoxyphenyl)methane] | 3.5 µg/mL (≈ 9.03 µM) | 0.029 µg/mL (≈ 0.0748 µM) | –
2 | CC(C)(C)c1ccc(C(O)CCCN2CCC(C(O)(c3ccccc3)c3ccccc3)CC2)cc1 (stereo not drawn) [terfenadine, α-[4-(1,1-Dimethylethyl)phenyl]-4-(hydroxydiphenylmethyl)-1-piperidinobutanol] | 4.1 µg/mL (≈ 8.69 µM) | 0.062 µg/mL (≈ 0.131 µM) | no longer possible to measure reliably an antihistamine action
